SMILES | melting point
CC(C#N)(COc1cc(C#N)ccc1C(F)(F)F)NC(=O)c1ccc(SC(F)(F)F)cc1 (stereo unspecified) | 126 to 127 °C
Cn1c(CO)nnc1NCCCCOc1cccc(CN2CCCCC2)c1 | 128 to 130 °C
Clc1ccc(/C=C/C2=CCN(Cc3ccccc3)CC2)cc1 | 123 to 125 °C
COC(=O)CCCc1cc2nc(C(F)(F)F)ccc2[nH]1 | 137 °C
O=C1c2cccnc2N(c2ccccc2)C(=O)C12CCCC2 | 178 to 179 °C
CC(C)(C)OC(=O)NCC1Cc2ccc(OCc3ccccc3)cc2C1 (stereo unspecified) | 95 to 98 °C
CCCCn1c(=O)c2c(ncn2S(=O)(=O)c2c(C)cc(C)cc2C)n(CCCC)c1=O | 125 to 127 °C
CCC(=O)c1c(CC)n(Cc2ccccc2Cl)c2cc(-c3nnn[nH]3)ccc12 | 178 to 181 °C
COc1ccc(C=O)c(Cl)c1Cl | 112 to 113 °C
COc1nc(NC(=O)NS(=O)(=O)c2ccccc2Cl)nc2nccnc12 | 212 °C
OC(CNCCNc1cccc2cn[nH]c12)COc1ccccc1 (stereo unspecified) | 117 to 119 °C
CCOC(=O)CCc1ccc2oc(Cc3ccc4ccccc4c3)nc2c1 | 81 to 82 °C
Cc1noc(C)c1C(=O)Nc1ccc(-n2nc(C(F)(F)F)cc2C2CC2)cc1 | 170 to 172 °C
O=C(NC1CCCCC1)C12CC3CC(CC(C3)C1)C2 | 199 to 200 °C
CCCCCCCCCCCCc1ccc(S(=O)(=O)Nc2nnc(CC(=O)OCC)s2)cc1 | 108 to 109 °C
O=C(OCC1CCCCCCCCCC1)n1c(-c2cscn2)nc2ccccc21 | 86 to 87 °C
Nc1ccc(-c2cc(=O)cc(N3CCOCC3)o2)cc1 | 258 to 260 °C
COc1ccc(C=C(C)[N+](=O)[O-])c(OC)c1 | 80 to 81 °C
O=C1Nc2ccccc2N(C(=O)CCN2CCCCC2)c2ccc(Cl)cc21 | 170 to 172 °C
COc1cc(/C=C/C(=O)Nc2ccccc2C(=O)O)ccc1OCc1cn(CC(=O)Nc2ccccc2)nn1 | 220 to 222 °C
CC(C)Nc1nc2cc(Cl)c(Cl)cc2n1C1OC(CO)C(O)C1O (stereo unspecified) | 197 to 199 °C

SMILES | melting point
CC(C)c1nccc2c(CNC(=O)C(Cl)Cl)cccc12 | 151 °C
CCCOc1ccc(C2=NN(C(=S)Nc3ccc(C(F)(F)F)cc3)CC2NCC(=O)OC)cc1 (stereo unspecified) | 167 to 169 °C
CCN1c2ncc(CCc3cccnc3)cc2C(=O)N(C)c2cccnc21 | 79 to 80 °C
O=c1c2c[nH]c3c(c-2nn1-c1ccccc1)CCC3 | > 350 °C
O=C1CC(N2C=Nc3cc(Cl)cc(Cl)c3C2)C(=O)N1 (stereo unspecified) | 215 to 217 °C
Cc1cc(C)cc(N(CCO)Cc2ccc3nc(NCCCN4CCOCC4)n(Cc4nc(C)ccc4O)c3c2)c1 | 180 °C
O=C(O)c1ccc(NCCCCc2cccs2)cc1 | 137 to 140 °C
C=Cc1nc(Cl)nc(Cl)c1OC | 60 to 61 °C
BrCCCCOc1ccc2c(ccn2-c2ccc(Br)cc2)c1 | 80 to 81 °C
O=C(NCCCCCCCCCNC(=O)c1ccc(OC(F)(F)F)cc1)c1ccc(OC(F)(F)F)cc1 | 144 to 145 °C
CCCN(CCC)c1nc2c(N3CCCC3)nccc2c(=O)[nH]1 | 220 °C
CNC(=O)C(NC(=O)c1cn(C)nc1C(F)(F)F)C(/C=C/c1ccccc1)c1ccccc1 (stereo unspecified) | 192 to 194 °C
COC(=O)Nc1cc(F)c(Br)cc1I | 101 to 102 °C
Cc1cc(C(N)=O)ncc1C(c1c(F)ccc(F)c1F)S(=O)(=O)CCC(F)F (stereo unspecified) | 192 °C
COc1cc(S(C)=O)c(C)cc1O (stereo unspecified) | 165 to 166 °C
COC1=C(OC)C(=O)C(CCCCCCCCCCCCCCCCCCCCO)=C(C)C1=O | 85 °C
CC1=C(Br)C=CC(Cl)(C=NO)C1 (stereo unspecified) | 77 to 78 °C
NCCOCC(P(=O)(O)O)P(=O)(O)O | > 300 °C
C=CCN1CCN(c2cc3c(cc2Cl)c(=O)c(C(=O)O)cn3CC)CC1 | 212 °C
CC(NSc1nc2ccccc2s1)c1ccccc1 (stereo unspecified) | 50 to 53 °C
CC(C)(C)c1cc2c(=O)[nH]cnc2o1 | 198 to 200 °C

SMILES | melting point
N#Cc1ccc(Cc2cccnc2)cc1 | 155 to 157 °C
CC(Oc1ccc2nc(NC(=O)NCCN3CCOCC3)sc2c1)c1c(Cl)cccc1Cl (stereo unspecified) | 165 to 168 °C
Nc1cccc(C=C2c3ccccc3CCc3ccccc32)c1 | 204 °C
COC(=O)Nc1cccc(C(=O)C=CN(C)C)c1 | 210 to 211 °C
Cc1cc(-c2nc3ccccc3c(=O)n2-c2ccc(F)cc2)cc(C)c1OCCO | 95 to 97 °C
Cc1cc(=O)c(C(=O)O)c(C)o1 | 98 °C
CCOC(=O)c1cnn2c1c(Nc1ccccc1)nc1ccccc12 | 145 to 147 °C
CCC(C(=O)N(CC)CC)n1ccc(-c2ccccc2)n1 (stereo unspecified) | 63 to 66 °C
COc1cc(OC)nc(-n2nc(C)n(N)c2=O)n1 | 219 °C
Cc1nc(NCc2ccccn2)[nH]c(=O)c1CCO | 185 °C
Cn1c(=O)c2c(Cl)cccc2n2cnc(C(=O)n3ccnc3)c12 | 242 to 243 °C
C=C(C)C(=O)NNc1ccnc2c(NC(=O)c3c(Cl)cccc3Cl)cccc12 | 277 to 280 °C
CCOP(=O)(OCC)Oc1cc(C(F)(F)F)nc(N(C)C)n1 | 22 to 24 °C
COc1cc(I)cc(C(N)=O)c1 | 175 to 176 °C
O=C(O)[C@@H](CCN1C(=O)c2ccccc2C1=O)Oc1c(Br)cc(-c2c3ccccc3cc3sc4ccccc4c23)cc1Br | 222 to 223 °C
CCCCCCCCCCC[C@@H](C[C@@H]1OC(=O)[C@H]1CCCCCC)OC(=O)[C@H](CC(C)C)NC=O | 44 to 45 °C
CCOC(=O)c1c2n(c3cc(F)c(F)cc3c1=O)CCCC2 | 166 to 168 °C
COC(C)=CC(=O)Nc1cccc(N)c1 | 132 °C
Nc1nc(-c2cc(Cl)ccc2Cl)nc(N2CCCC(O)C2)n1 (stereo unspecified) | 178 to 180 °C
O=C1c2ccc([N+](=O)[O-])cc2C(=O)N1c1ccc(C2(c3ccc(N4C(=O)c5ccc([N+](=O)[O-])cc5C4=O)cc3)c3ccccc3-c3ccccc32)cc1 | 360 to 363 °C

Other lines, results leading:

melting point | SMILES
185 to 186 °C | CC(C)(C)c1ccc(CCCO)cc1NC(=O)CC1c2ccccc2Oc2ccccc21
165 to 172 °C | COc1cc(O)c(C(=O)c2ccccc2)cc1S(=O)(=O)Cl
55 to 60 °C | CCCCOc1ccc(CC(CC(=O)NO)S(=O)(=O)c2ccc(OC)cc2)cc1 (stereo unspecified)
147 °C | Cc1ccc(S(=O)(=O)OCCOc2ccc(Nc3ncc(C#N)c(-c4ccccc4)n3)cc2)cc1
237 to 238 °C | COc1ccc(C(=O)Nc2ccc3c(c2)CCC3=O)cc1
137 °C | O=S(=O)(CC(O)(CO)c1ccccc1)c1ccccc1 (stereo unspecified)
166 to 169 °C | CC(=O)N(C)c1cccc(-c2ccc3nncn3n2)c1
114 °C | CS(=O)(=O)Nc1ccc(C(=O)N[C@@H](Cc2ccc(-c3ccccc3C(F)(F)F)cc2)C(=O)O)c(Cl)c1
201 to 208 °C | Cc1[nH]c(=O)ccc1-c1ccccc1
230 to 231 °C | Cc1cccc(C(=O)c2[nH]c3cc(Cl)ccc3c2CC(=O)O)n1
141 °C | CCN(CC)C(=O)Nc1ccc(Oc2ccc3sncc3c2)c(Cl)c1
139 to 142 °C | CCc1nc2c(C)cc(C)nc2n1Cc1ccc(-c2ccccc2C(=O)NN)cc1
123 °C | CC(C)(C)C(=O)NNc1ccc([N+](=O)[O-])cc1Cl
127 to 128 °C | COCCOc1ccc(/C=C/COC(=O)NS(=O)(=O)NCCOC(C)C)c(Oc2ncc(C(F)(F)F)cc2Cl)c1
251 to 253 °C | O=C(O)c1cn2c3c(ccc([N+](=O)[O-])c3c1=O)C1CCCCC12 (stereo unspecified)
293 to 296 °C | CC(C)n1nc(-c2c(-c3ccccc3)nc(N)nc2N(C)C)ccc1=O
126 to 127 °C | CN(CCO)Cc1cc(C(=O)c2ccc(Cl)cc2)cc(C(C)(C)C)c1O
87.8 °C | CCOC(=O)/C=C(/c1ccccc1)c1ccc([N+](=O)[O-])c(COS(C)(=O)=O)c1
138 to 140 °C | Clc1ccc(C2=NCCc3c2ccc2ccccc32)cc1
212 to 220 °C | NC(=O)/C=C1/c2cc(F)ccc2C(O)C1O (stereo unspecified)

melting point | SMILES
99 to 101 °C | CC(=O)N1CCC(c2nn(-c3ccc(F)cc3)c3ccccc23)CC1
83 to 85 °C | CO/C=C(/C(=O)OC)c1ccccc1Oc1cccc(N)c1
169 °C | CC(=O)c1cc(O)c(-c2ccccc2)cc1O
150 °C | CC(CN(C)C)Oc1ccccc1CC(=O)N1CC2C(C1)C(c1ccccc1)(c1ccccc1)CCS2=O (racemic)
167 to 169 °C | COc1ccc(-c2nc(C(N)=O)cn2-c2ccc(OC)cc2)cc1
106 to 108 °C | COC(=O)c1cccc(C(=O)CC(=O)c2ccccc2)c1
191 to 193 °C | CN1C(=O)CC(c2ccc(-c3ccc(F)cc3)cc2)C1C(O)c1ccc(-c2ccccc2)s1 (stereo unspecified)
127 to 128 °C | C=CCOC(=O)c1cccc(C)c1OS(=O)(=O)NC(=O)Nc1nc(C)cc(OC)n1
217 to 218 °C | Cc1c2ccccc2nc2ccc3nc4ccccc4c(C)c3c12
105 to 106 °C | COc1ccc(C(NC(C)c2cc(F)cc(F)c2)c2cc(N)ccc2OC)cc1 (stereo unspecified)
127 to 128 °C | Cc1cccc(N2CCN(CCCON3C(=O)c4ccccc4C3=O)CC2)c1
153 °C | CON=C(C)c1ccc(-c2ccccc2NC(=O)c2c(C)nn(C)c2F)cc1
105 to 107 °C | O=c1n(CCCC2CCCC2)ccn1-c1ccc([N+](=O)[O-])cc1
149 °C | COC(=O)C1(NC(=O)Cc2cc(-c3ccc(Cl)cc3)ccc2C)CCCC(C(F)(F)F)C1 (stereo unspecified)
204 °C | COc1cc(N(CC(N)=O)S(=O)(=O)c2ccc(OC)c(OC)c2)c(C(O)c2c(F)cccc2F)cc1C (stereo unspecified)
80 to 82 °C | O=[N+]([O-])c1ccc(C2SCCS2)cc1
142 to 146 °C | C[C@H](NC(=O)C1(C)Oc2ccc([N+](=O)[O-])cc2NC1=O)C(=O)N[C@H](CCC(=O)O)C(N)=O (stereo partly specified)
172 to 173 °C | Cc1csc(-c2cc(C)cn2-c2ccc(S(N)(=O)=O)cc2)c1
129 to 130 °C | Cc1ccc(S(=O)(=O)N(c2ccc(F)cc2[N+](=O)[O-])C(C)C)cc1
